Measurements: the NIST ThermoML archive (doi:10.1016/j.jct.2010.04.022)
± gives the expanded uncertainty stated by the source. Values belong to the compound of their own block, whether it stands above or below them.

Columns and labels:
[1] = refractive index (Na D-line) (dimensionless); settings: 298.15 K; 101.33 kPa; Liquid; Standard Abbe refractometry
[2] = 298.15 K; 101.33 kPa; Liquid; Vibrating tube method
[3] = xn = mol fraction of the nth substance listed; settings: 101 kPa, Liquid, Vibrating tube method

- refractive index [1]: 1.50525 ± 0.00037
- mass density [2]: 1252 ± 0.4 kg/m3
SMILES: CCOS(=O)(=O)[O-].CC[n+]1ccccc1 [1-ethylpyridinium ethyl sulfate]

- mass density ([3]; 283.15 K, x2 = 0.007): 1260.51 ± 0.99 kg/m3
- mass density ([3]; 298.15 K, x2 = 0.007): 1250.63 ± 0.98 kg/m3
SMILES: CCOS(=O)(=O)[O-].CC[n+]1ccccc1 [1-ethylpyridinium ethyl sulfate] + CCCCCCC

- mass density ([3]; 283.15 K, x2 = 0.335): 1198.57 ± 1.7 kg/m3
- mass density ([3]; 298.15 K, x2 = 0.406): 1171.69 ± 1.7 kg/m3
SMILES: CCOS(=O)(=O)[O-].CC[n+]1ccccc1 [1-ethylpyridinium ethyl sulfate] + c1ccccc1

- mass density ([3]; 283.15 K, x2 = 0.007): 1259.82 ± 0.99 kg/m3
- mass density ([3]; 298.15 K, x2 = 0.008): 1249.78 ± 1.1 kg/m3
SMILES: CCOS(=O)(=O)[O-].CC[n+]1ccccc1 [1-ethylpyridinium ethyl sulfate] + CCCCCC
